Experimental data as given in ChEMBL document CHEMBL3886339, “mGluR4 allosteric potentiators, compositions, and methods of treating neurological dysfunction” (2015).

The molecules below were run against Metabotropic glutamate receptor 4 (Homo sapiens, UniProt Q14833).
Sequence of Metabotropic glutamate receptor 4 (Q14833 whole entry): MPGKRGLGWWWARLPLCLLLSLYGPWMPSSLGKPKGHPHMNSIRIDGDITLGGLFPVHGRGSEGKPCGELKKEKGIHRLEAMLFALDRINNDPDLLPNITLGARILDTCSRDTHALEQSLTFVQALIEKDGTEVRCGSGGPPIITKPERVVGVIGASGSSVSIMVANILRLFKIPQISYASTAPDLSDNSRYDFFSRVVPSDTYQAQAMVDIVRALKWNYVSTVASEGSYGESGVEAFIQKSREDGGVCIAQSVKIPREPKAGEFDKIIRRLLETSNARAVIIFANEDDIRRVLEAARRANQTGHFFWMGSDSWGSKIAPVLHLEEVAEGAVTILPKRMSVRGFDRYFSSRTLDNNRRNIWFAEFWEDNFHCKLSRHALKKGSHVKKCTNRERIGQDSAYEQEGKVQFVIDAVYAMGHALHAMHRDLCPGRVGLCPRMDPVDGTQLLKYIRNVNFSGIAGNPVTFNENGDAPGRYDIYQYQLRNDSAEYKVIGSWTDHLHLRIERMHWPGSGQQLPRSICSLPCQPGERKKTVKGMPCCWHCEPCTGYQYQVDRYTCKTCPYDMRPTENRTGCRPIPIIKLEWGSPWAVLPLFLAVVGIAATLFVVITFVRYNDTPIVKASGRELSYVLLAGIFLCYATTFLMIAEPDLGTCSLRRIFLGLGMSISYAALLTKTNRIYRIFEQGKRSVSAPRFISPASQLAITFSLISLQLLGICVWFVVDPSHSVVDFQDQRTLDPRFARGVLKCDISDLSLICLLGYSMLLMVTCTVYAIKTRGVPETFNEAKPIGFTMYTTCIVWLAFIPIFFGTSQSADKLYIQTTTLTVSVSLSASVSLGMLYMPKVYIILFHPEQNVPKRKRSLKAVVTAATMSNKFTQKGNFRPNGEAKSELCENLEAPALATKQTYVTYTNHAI
Assay type: functional, cell-based, HEK293
Cc1cc(F)ccc1S(=O)(=O)n1cc(NC(=O)c2ccccn2)cn1 showed an EC50 of 2340 nM.
COc1ccc(S(=O)(=O)n2cc(NC(=O)c3ccccn3)cn2)cc1Cl was tested, and the EC50 was 260 nM.
O=C(Nc1cnn(S(=O)(=O)c2ccc(Cl)cc2F)c1)c1ccccn1 gave an EC50 of 128 nM.
For Cc1cccc(S(=O)(=O)n2cc(NC(=O)c3nccs3)cn2)c1, the EC50 was 234 nM.
Cc1ccc(S(=O)(=O)n2cc(NC(=O)c3ccccn3)cn2)cc1C showed an EC50 of 144 nM.
O=C(Nc1cnn(S(=O)(=O)c2cc(Cl)ccc2Cl)c1)c1ccccn1 showed an EC50 of 197 nM.
For O=C(Nc1cnn(S(=O)(=O)c2cc(F)c(F)cc2F)c1)c1ccccn1, the EC50 was 1770 nM.
Work on CCc1ccc(S(=O)(=O)n2cc(NC(=O)c3ccccn3)cn2)cc1 yielded an EC50 of 248 nM.
O=C(Nc1cnn(S(=O)(=O)c2cc(F)c(F)cc2Cl)c1)c1ccccn1 showed an EC50 of 1170 nM.
Cc1ccc(S(=O)(=O)n2cc(NC(=O)c3ccccn3)cn2)cc1F was tested, and the EC50 was 137 nM.
O=C(Nc1cnn(S(=O)(=O)c2cccc(Cl)c2F)c1)c1ccccn1 was tested, and the EC50 was 5240 nM.
For Cc1ccc(S(=O)(=O)n2cc(NC(=O)c3ccccn3)cn2)cc1, the EC50 was 9880 nM.
With Cc1cccc(S(=O)(=O)n2cc(NC(=O)c3ccccn3)cn2)c1 the EC50 was 163 nM.
Molecule O=C(Nc1cnn(S(=O)(=O)c2cc(F)c(F)c(F)c2)c1)c1ccccn1 has an EC50 of 234 nM.
Molecule Cc1ccc(S(=O)(=O)n2cc(NC(=O)c3ccccn3)cn2)c(C)c1 has an EC50 of 486 nM.
Cc1cc(S(=O)(=O)n2cc(NC(=O)c3ccccn3)cn2)ccc1F showed an EC50 of 124 nM.
O=C(Nc1cnn(S(=O)(=O)c2ccc(F)c(F)c2F)c1)c1ccccn1 showed an EC50 of 282 nM.
O=C(Nc1cnn(S(=O)(=O)c2ccc(F)c(F)c2)c1)c1nccs1 was tested, and the EC50 was 4160 nM.
In the case of Cc1cc(S(=O)(=O)n2cc(NC(=O)c3ccccn3)cn2)ccc1Cl, the EC50 is reported as 151 nM.
Work on Cc1ccc(S(=O)(=O)n2cc(NC(=O)c3nccs3)cn2)cc1C yielded an EC50 of 652 nM.
For Cc1ccc(S(=O)(=O)n2cc(NC(=O)c3nccs3)cn2)cc1, the EC50 was 324 nM.
O=C(Nc1cnn(S(=O)(=O)c2ccc(F)c(F)c2)c1)c1ccccn1 was tested, and the EC50 was 1740 nM.
O=C(Nc1cnn(S(=O)(=O)c2ccc(F)c(Cl)c2)c1)c1ccccn1 gave an EC50 of 138 nM.
In the case of COc1ccc(S(=O)(=O)n2cc(NC(=O)c3ccccn3)cn2)cc1, the EC50 is reported as 170 nM.
O=C(Nc1cnn(S(=O)(=O)c2ccc(C(F)(F)F)cc2)c1)c1ccccn1 was tested, and the EC50 was 266 nM.
O=C(Nc1cnn(S(=O)(=O)c2ccc(Cl)c(Cl)c2)c1)c1ccccn1 was tested, and the EC50 was 204 nM.
O=C(Nc1cnn(S(=O)(=O)c2ccc(F)cc2F)c1)c1ccccn1 gave an EC50 of 1620 nM.
O=C(Nc1cnn(S(=O)(=O)c2ccc(Cl)c(F)c2)c1)c1ccccn1 showed an EC50 of 3910 nM.
O=C(Nc1cnn(S(=O)(=O)c2cc(Cl)ccc2F)c1)c1ccccn1 was tested, and the EC50 was 2250 nM.
